How the values were obtained:
[1] = tested on: L5178YMDR cells (ABCB1-expressing); assay: MTT antiproliferative assay (72 h, 6 × 10^3 cells); assay type: cell-based; conditions: Mus musculus, 72 h MTT, n = 3, read-out: Antiproliferative Effect (IC50 ± SD)
Protocol: (§1) To assess the compounds’ effect on cell growth and viability, we used two different experimental setups of MTT assay. This allowed a comparative evaluation of results obtained from a short-term (24 h) treatment of a relatively higher number (10,000) of cells and those from a long-term (72 h) treatment of a lower cell number (6000), which makes it possible to gain some insight into the cytotoxic vs. cytostatic properties of the compounds. Even though MTT assay is an endpoint detection method, i.e., it provides a single readout of viable cells at the end of the experiment, such a comparison offers a reliable tool to identify antiproliferative activity of compounds that are not cytotoxic.
(§2) L5178Y mouse T-cell lymphoma cells (ECACC Cat. No. 87111908) were obtained from FDA, Silver Spring, MD, USA. These were transfected with pHa MDR1/A retrovirus as described previously. ABCB1-expressing L5178YMDR cells were selected by culturing the infected cells with colchicine. The cell lines were cultured in McCoy’s 5A medium supplemented with 10% heat inactivated horse serum, 2 mM L-glutamine, and penicillin–streptomycin mixture.
(§3) MTT assay was performed in 96-well flat-bottomed microtiter plates as described before. Briefly, a 10 mM concentration stock solution in DMSO was prepared for each compound. These were diluted in 100 μL of McCoy’s 5A medium. Subsequently, 1 × 10^4 (cytotoxicity assay) or 6 × 10^3 (antiproliferative assay) T-cell mouse lymphoma cells in 100 μL of medium were added to each well, except for the medium control wells.
(§4) The culture plates were further incubated at 37 °C for 24 h (cytotoxicity assay) or 72 h (antiproliferative assay); at the end of the incubation period, 20 μL of MTT solution (from a 5 mg/mL stock) was added to each well. After incubation at 37 °C for 4 h, 100 μL of SDS solution (10% in 0.01 M HCI) was added to each well and the plates were further incubated at 37 °C overnight. The cell growth was determined by measuring the optical density at 540 nm (ref. 630 nm) with a Multiscan EX ELISA reader (Thermo Labsystems, Cheshire, WA, USA). IC50 values were calculated by variable slope nonlinear regression using the log(inhibitor) vs. normalized response of GraphPad Prism 5.01 (GraphPad Software Inc., San Diego, CA, USA).

[2] = tested on: L5178Y mouse T-cell lymphoma cells; assay: MTT antiproliferative assay (72 h, 6 × 10^3 cells); assay type: cell-based; conditions: for IC50: Mus musculus
Protocol: as §1, §2, §3, §4

[3] = tested on: MRC-5 human embryonal lung fibroblasts; assay: MTT antiproliferative assay (72 h); assay type: cell-based
Protocol: as §1
(§5) MRC-5 human embryonal lung fibroblasts (CCL-171, ATCC) were acquired from Sigma-Aldrich (Merck, KGaA, Darmstadt, Germany), and were cultured in EMEM medium containing 4.5 g/L glucose and supplemented with a non-essential amino acid mixture, a selection of vitamins, and 10% of FBS.
(§6) The adherent human fibroblast cells were seeded in 100 μL of EMEM medium overnight before each assay. Two-fold serial dilutions of the compounds (0.19–100 µM) were prepared in separate plates, then transferred to the plates containing the adherent cell lines.
as §4

[4] = MTT cytotoxicity assay (24 h); assay type: cell-based; conditions: human, MRC-5 human embryonal lung fibroblasts; MRC-5, 24 h MTT, n = 3; read-out: Cytotoxicity (IC50 ± SD)
Protocol: as §1, §5, §6, §4

[5] = molecular target: T1, ABCB1 (Homo sapiens, UniProt P08183); assay: ABCB1 inhibition assay (rhodamine 123 accumulation, flow cytometry); assay type: cell-based; conditions: human, probe rhodamine 123 (5.2 µM), L5178YMDR, rhodamine 123 accumulation, n = 1
T1 construct: expressed in transfected cells; host or cells: L5178Y mouse T-cell lymphoma cells transfected with pHa MDR1/A retrovirus, selected with colchicine (L5178YMDR)
Protocol: (§7) ABCB1 inhibition was determined by the intracellular accumulation of rhodamin 123 as reported before. Briefly, 2 × 10^6 cells/mL of L5178Y and L5178YMDR cell lines were re-suspended in serum-free McCoy’s 5A medium and distributed in 0.5 mL aliquots into Eppendorf centrifuge tubes. The compounds were added at a final concentration of 2 or 20 μM and the samples were incubated for 10 min at room temperature. Tariquidar was used as positive control and DMSO as negative control; for the latter, no activity was observed. Subsequently, 10 μL (5.2 μM final concentration) of the ABCB1 substrate fluorescent dye rhodamine 123 was added and the cells were incubated further for 20 min at 37 °C, washed twice and re-suspended in 1 mL PBS for analysis. Fluorescence of the cell population was measured with a PartecCyFlow® flow cytometer (Partec, Münster, Germany). Mean fluorescence intensity percentage was calculated for the treated vs. untreated L5178YMDR cells. Inhibition percentage for the treated cells was calculated from the corresponding values of the untreated L5178Y and L5178YMDR cells, representing 100% and 0% inhibition, respectively.

[6] = molecular target: T2, ABCB1 transporter (Homo sapiens, UniProt P08183); assay: as above; assay type: cell-based; conditions: L5178YMDR, 2 or 20 µM
T2 construct: expressed in transfected cells; host or cells: L5178Y mouse T-cell lymphoma cells transfected with pHa MDR1/A retrovirus, selected with colchicine (L5178YMDR)
Protocol: as §7

[7] = tested on: L5178YMDR cells; assay: Combination assay with doxorubicin (checkerboard microplate method, MTT); assay type: cell-based, mouse; design: Dm (antilog of the x-intercept of the median-effect plot): unit not given here; conditions: for CIavg (weighted average CI): (CI50 + 2CI75 + 3CI90)/6
Protocol: Compounds 7, 10, 11, 13, and 14 had sufficient individual antiproliferative properties for their assessment of chemo-sensitizing activity. This was carried out as an antiproliferative assay on L5178YMDR cells in combination with doxorubicin, arranged according to the checkerboard microplate method.
The checkerboard microplate method was used to evaluate the compounds’ interaction with doxorubicin, as described before. Briefly, doxorubicin (2 mg/mL, Teva Pharmaceuticals, Budapest, Hungary) was serially diluted in the horizontal direction (100 µL per well), and the ecdysteroid was subsequently diluted in the vertical direction (50 µL per well). L5178YMDR cells were re-suspended in culture medium and added to each test well in 50 µL to contain 1 × 10^4 cells per well, and 50 µL of medium was added to the medium control wells. The plates were incubated for 72 h at 37 °C in a CO2 incubator and, at the end of the incubation period, the cell growth was determined by MTT assay as described above. Cell viability data were analyzed by the Calcusyn software using the Chou method, and drug interactions were expressed as combination index (CI) values, in which 0 < CI < 1, CI = 1, and CI > 1 refer to synergism, additivity, and antagonism, respectively.

[8] = tested on: L5178YMDR cells (ABCB1-expressing); assay: MTT cytotoxicity assay (24 h, 1 × 10^4 cells); assay type: cell-based; conditions: Mus musculus, 24 h MTT, n = 3, read-out: Cytotoxicity (IC50 ± SD)
Protocol: as §1, §2, §3, §4

[9] = tested on: L5178Y mouse T-cell lymphoma cells; assay: MTT cytotoxicity assay (24 h, 1 × 10^4 cells); assay type: cell-based; conditions: 24 h MTT, n = 3, read-out: Cytotoxicity (IC50 ± SD)
Protocol: as §1, §2, §3, §4

[10] = drug ratio 23.2:1, with doxorubicin
[11] = drug ratio 46.4:1, with doxorubicin
[12] = drug ratio 92.8:1, with doxorubicin
[13] = drug ratio 185.6:1, with doxorubicin

CC(=O)N[C@H]1CC=C2C3=CC(=O)[C@@H]4C[C@H]5OC(C)(C)O[C@H]5C[C@]4(C)[C@H]3CC[C@@]21C [Compound 13]
IC50 [1]: 4.8 ± 0.6 µM | IC50 ([2]; L5178Y, 72 h MTT, n = 3, read-out: Antiproliferative Effect (IC50 ± SD)): 4.6 ± 0.8 µM | IC50 ([2]; text summary for both lymphoma cell lines (L5178Y and L5178YMDR), read-out: antiproliferative activity on the lymphoma cell lines (IC50)): ~4.7 µM | antiproliferative activity stronger than cytotoxicity ([2]; lymphoma cell lines, ratio of cytotoxic to antiproliferative IC50): over 20 times | IC50 ([3]; Homo sapiens, MRC5, MRC-5, 72 h MTT, n = 3, read-out: Antiproliferative Effect (IC50 ± SD)): 12 ± 1.9 µM | selective antiproliferative activity against both tumor cell lines ([3]; tumor cell lines vs MRC-5): ca. 2.5 times | IC50 at 24 h [4]: 35 ± 3.2 µM | inhibition at 20 min, 2 µM ([5]; 2 µM): 0.09% | inhibition at 20 min, 20 µM ([5]; 20 µM): -0.01% | direct ABCB1 / efflux pump inhibition, in words [6]: inactive | interaction with doxorubicin, in words ([7]; checkerboard, 72 h): relevant synergism with doxorubicin already at 50% inhibition | CI at ED75 [7, 10]: 0.55 | CI at ED90 [7, 10]: 0.49 | Dm (antilog of the x-intercept of the median-effect plot) [7, 10]: 8.17 | CIavg (weighted average CI) [7, 10]: 0.53 | CI at ED75 [7, 11]: 0.51 | CI at ED90 [7, 11]: 0.39 | Dm (antilog of the x-intercept of the median-effect plot) [7, 11]: 14.17 | CIavg (weighted average CI) [7, 11]: 0.48 | CI at ED75 [7, 12]: 0.51 | CI at ED90 [7, 12]: 0.47 | Dm (antilog of the x-intercept of the median-effect plot) [7, 12]: 17.54 | CIavg (weighted average CI) [7, 12]: 0.50 | CI at ED75 [7, 13]: 0.68 | CI at ED90 [7, 13]: 0.65 | Dm (antilog of the x-intercept of the median-effect plot) [7, 13]: 29.89 | CIavg (weighted average CI) [7, 13]: 0.67 | IC50 [8]: > 100 µM | IC50 [9]: > 100 µM
